The record followed here is PubChem BioAssay (NCI).

Some test systems named below: NCI-H23 lung; DU-145 prostate; SK-MEL-28 melanoma; HCT-116 colon; CAKI-1 renal; A549 NSCLC; T-47D breast; SNB-19 CNS; MDA-MB-435; SN12C renal.
What all share (experiment): NCI tumour cell line growth inhibition, 48 h

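In this assay, cells in 96-well plates receive the compound at five concentrations for 48 hours. Endpoints are linearly interpolated between the surrounding concentrations. Abbreviation: GI50, concentration required for 50% inhibition of growth. Definition used: TGI = concentration required for complete inhibition of growth.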

As to `O=C(O)CCCc1ccc2ccc3ccccc3c2c1`, the TGI with NCI-H23 lung, in the assay on DU-145 prostate, in the assay on SK-MEL-28 melanoma, with HCT-116 colon, in the assay on CAKI-1 renal and in the assay on A549 NSCLC was over 100 µM in each case. In addition, the TGI in the assay on T-47D breast, in the assay on SNB-19 CNS, in the assay on MDA-MB-435 and in the assay with SN12C renal was over 100 µM in each case.
As for `O=C(NC(=O)c1c(F)cccc1F)Nc1cccc(Oc2ncc(Cl)cn2)c1`, the TGI in the assay with NCI-H23 lung, in the assay on DU-145 prostate, with SK-MEL-28 melanoma, in the assay with HCT-116 colon, in the assay on CAKI-1 renal and in the assay with A549 NSCLC was over 100 µM throughout. Also, the TGI in the assay on T-47D breast was over 100 µM; in the assay with SNB-19 CNS, over 86.3 µM; in the assay with MDA-MB-435 it was over 22.8 µM; in the assay on SN12C renal it was over 100 µM.
Regarding `CN(c1ccc(NC(=O)Nc2c(Cl)cccc2Cl)cc1)c1ccnc(Nc2cccc(CS(C)(=O)=O)c2)n1`, the GI50 is 2.68 µM with NCI-H23 lung; 3.07 µM in the assay on DU-145 prostate; 3.56 µM in the assay with SK-MEL-28 melanoma; 1.3 µM in the assay with HCT-116 colon; 4.53 µM in the assay on CAKI-1 renal; 1.65 µM with A549 NSCLC. Moreover, the GI50 with T-47D breast is 4.46 µM; in the assay on SNB-19 CNS it was 4.5 µM; with MDA-MB-435, 2.26 µM; in the assay with SN12C renal, 3.37 µM. Further, the TGI with NCI-H23 lung was 18.5 µM; with DU-145 prostate, 6.72 µM; in the assay on SK-MEL-28 melanoma, 9.47 µM; in the assay on HCT-116 colon, 7.45 µM; in the assay on CAKI-1 renal, 21 µM; with A549 NSCLC it was 7.66 µM. The TGI with T-47D breast is 13.2 µM; in the assay on SNB-19 CNS, over 25 µM; with MDA-MB-435, 10.9 µM; in the assay on SN12C renal it was 10.6 µM.
In the case of `C#CC1(O)C(COP(=O)(O)OCC(COP(=O)(O)OCC2OC(n3cc(F)c(=O)[nH]c3=O)CC2O)OCCCCCCCCCCCCCCCCCC)OC(n2ccc(N)nc2=O)C1O` (stereo not given), the GI50 is 0.28 µM with NCI-H23 lung; 0.106 µM in the assay with DU-145 prostate; 7.4 µM with SK-MEL-28 melanoma; under 0.01 µM in the assay with HCT-116 colon; 0.0293 µM in the assay on CAKI-1 renal; 0.117 µM in the assay on A549 NSCLC. Also, the GI50 in the assay with T-47D breast is 3.72 µM; in the assay on SNB-19 CNS, 0.313 µM; with MDA-MB-435 it was 0.566 µM; in the assay with SN12C renal, under 0.0229 µM. Further, the TGI with NCI-H23 lung is 8.72 µM; in the assay on DU-145 prostate, over 71.9 µM; in the assay on SK-MEL-28 melanoma it was over 100 µM; with HCT-116 colon it was over 40.7 µM; in the assay on CAKI-1 renal it was 1.16 µM; in the assay on A549 NSCLC it was over 68.3 µM. In addition, the TGI in the assay on T-47D breast is over 51.3 µM; in the assay with SNB-19 CNS, over 57.2 µM; in the assay with MDA-MB-435, over 27.2 µM; in the assay with SN12C renal, 1.93 µM.
Consider `CC1(C)N=C(N)N=C(N)N1c1ccc(CCC(=O)Nc2ccc(S(=O)(=O)F)cc2)c(Cl)c1`, for which the GI50 in the assay with NCI-H23 lung is 0.888 µM; in the assay on DU-145 prostate it was 0.593 µM; with SK-MEL-28 melanoma, 22.8 µM; with HCT-116 colon, 0.268 µM; in the assay on CAKI-1 renal it was 7.73 µM; in the assay with A549 NSCLC, 0.517 µM. The GI50 in the assay with T-47D breast is 12.4 µM; in the assay with SNB-19 CNS, 5.22 µM; with MDA-MB-435, 0.296 µM; in the assay with SN12C renal, 0.487 µM. The TGI in the assay on NCI-H23 lung was over 100 µM; in the assay with DU-145 prostate, over 100 µM; with SK-MEL-28 melanoma it was over 100 µM; in the assay with HCT-116 colon, over 100 µM; in the assay with CAKI-1 renal, over 81.1 µM; in the assay on A549 NSCLC it was over 100 µM. Also, the TGI with T-47D breast, with SNB-19 CNS, in the assay on MDA-MB-435 and in the assay with SN12C renal was over 100 µM in each case.
On to `CC(C)C(O)(C(C)C)C(C)C`, for which the TGI in the assay with NCI-H23 lung, in the assay on DU-145 prostate, with SK-MEL-28 melanoma, in the assay with HCT-116 colon, in the assay with CAKI-1 renal and with A549 NSCLC was over 100 µM throughout. In addition, the TGI in the assay on T-47D breast, with SNB-19 CNS, in the assay with MDA-MB-435 and with SN12C renal was over 100 µM throughout.
Regarding `O=C(/C=C/c1ccccc1)Nc1ncc(Cc2ccccc2Cl)s1`, the GI50 was 0.708 µM in the assay with NCI-H23 lung; 0.41 µM with DU-145 prostate; 1.5 µM in the assay with SK-MEL-28 melanoma; 0.375 µM in the assay with HCT-116 colon; 0.329 µM in the assay with CAKI-1 renal; 0.469 µM in the assay with A549 NSCLC. The GI50 in the assay with T-47D breast was 0.513 µM; with SNB-19 CNS, 0.404 µM; with MDA-MB-435 it was 0.0972 µM; in the assay on SN12C renal, 0.623 µM. Further, the TGI in the assay on NCI-H23 lung, with DU-145 prostate, in the assay with SK-MEL-28 melanoma, in the assay on HCT-116 colon, in the assay on CAKI-1 renal and with A549 NSCLC was over 100 µM in each case. Besides, the TGI in the assay on T-47D breast was over 100 µM; in the assay on SNB-19 CNS it was over 100 µM; in the assay with MDA-MB-435, 0.344 µM; with SN12C renal it was over 100 µM.
With `O=C1NC(=S)S/C1=C/c1ccc2c(c1)OCO2`, the GI50 in the assay with NCI-H23 lung, with DU-145 prostate, in the assay on SK-MEL-28 melanoma, in the assay with HCT-116 colon, in the assay with CAKI-1 renal and in the assay with A549 NSCLC was over 100 µM in each case. Also, the GI50 with T-47D breast, with SNB-19 CNS, in the assay on MDA-MB-435 and in the assay with SN12C renal was over 100 µM in each case. Moreover, the TGI in the assay with NCI-H23 lung, in the assay on DU-145 prostate, in the assay on SK-MEL-28 melanoma, in the assay on HCT-116 colon, in the assay with CAKI-1 renal and with A549 NSCLC was over 100 µM in each case. Moreover, the TGI in the assay on T-47D breast, in the assay on SNB-19 CNS, with MDA-MB-435 and with SN12C renal was over 100 µM throughout.
